Values after ≈ are worked out from the molar mass of the structure shown. Values joined by “and” are separate entries in the source; they are usually repeats but may differ in a detail not shown here. Equal entries are not always repeated. Structures can show the parent of a compound that is named as a salt. Where two headings read alike, the source gives them in different places.
How the values were obtained:
[1] = pH 6.8
[2] = Solid state stability and polymorph screening; assay type: physicochemical
[3] = Particle size of drug substance batches; assay type: physicochemical
Source text: Fenfluramine hydrochloride drug substance is non-micronized. The range of particle size parameters obtained from five GMP batches (two clinical batches manufactured by Onyx, and three registration batches manufactured by Aptuit) is listed in Table 1.

[4] = Aqueous solubility of the drug substance; conditions: aqueous solution
[5] = Buffer system selection: stability of pH prototypes; assay type: physicochemical; conditions: pH range of 4.5 to 6.5, citrate or citrate-phosphate buffer prototypes
Description: A pH range of 4.5 to 6.5 was investigated during formulation development studies. Various prototypes were prepared with either citrate buffer or citrate-phosphate buffer, depending on target pH. […] Based on initial stability data, a target pH of 5.0 (range: 4.5-5.5) was selected because it minimized the preservatives degradation at long-term and accelerated stability conditions without causing precipitation in product stored at 2-8° C. The buffer components in the drug product formulation are tripotassium citrate and citric acid. Potassium citrate was used instead of sodium citrate to avoid common ion effect with the paraben sodium salts, which may have contributed to precipitation in prototypes containing sodium citrate.

[6] = system: food intake / carbohydrate craving; conditions: cited from earlier work
[7] = system: seizures; conditions: cited from earlier work
[8] = system: food intake / carbohydrate craving; experiment: Anorectic effect, food intake and carbohydrate craving; assay type: in vivo, human; conditions: surprisingly low dose, compared to 60-120 mg/day for obesity
Description: (§1) The overall anorectic effect of dexfenfluramine is greater than that of […] in experimental animals (Garratini et al. 1988) and humans (Goodall et al. 1992). […] Put differently, a preferred dose is not more than about 30 mg/day, and less than about 1 to about 0.01 mg/kg/day.

[9] = system: cardiac fibrosis and pulmonary hypertension; conditions: marketed use for obesity; cited from earlier work
[10] = system: seizures; experiment: Treatment of seizures in epilepsy patients; assay type: in vivo, human
Source text: Clemens, in Epilepsy Research (1988) 2:340-343 reported a study on a child suffering pattern sensitivity-induced seizures that were resistant to anticonvulsive treatment.
This is confirmed, for example, in the article by Ceulemans et al., Epilepsia (2012) 53(7):1131-1139, the contents of which are incorporated herein.
as §1

[11] = biological target: T1, vesicular glutamate transporter, VGLUT2 (Homo sapiens, UniProt Q9P2U8); conditions: concentrations expected during the ketogenic diet; cited from earlier work
T1 sequence (Q9P2U8 1-582): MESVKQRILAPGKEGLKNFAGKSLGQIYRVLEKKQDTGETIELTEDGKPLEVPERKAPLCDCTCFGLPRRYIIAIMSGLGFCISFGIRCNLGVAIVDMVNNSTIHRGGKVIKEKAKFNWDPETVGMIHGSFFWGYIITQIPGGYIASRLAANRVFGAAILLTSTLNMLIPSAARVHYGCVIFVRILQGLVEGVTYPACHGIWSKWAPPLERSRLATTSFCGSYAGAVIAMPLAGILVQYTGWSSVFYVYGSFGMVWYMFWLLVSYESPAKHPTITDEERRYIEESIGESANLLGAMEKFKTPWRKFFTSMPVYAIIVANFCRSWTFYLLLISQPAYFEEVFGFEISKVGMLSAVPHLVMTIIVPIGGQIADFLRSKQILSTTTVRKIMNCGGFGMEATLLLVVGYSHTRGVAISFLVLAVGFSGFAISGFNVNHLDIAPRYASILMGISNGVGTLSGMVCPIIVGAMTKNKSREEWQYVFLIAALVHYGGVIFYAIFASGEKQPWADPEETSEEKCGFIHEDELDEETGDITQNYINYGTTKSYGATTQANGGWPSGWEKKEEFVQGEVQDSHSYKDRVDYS

[12] = Paraben preservative degradation (hydrolysis); assay type: physicochemical; conditions: pH 6
Source text: The pH of the drug product formulation was optimized to minimize the preservative degradation.
Like methylparaben, ethylparaben degrades in solution by hydrolysis. The rate increases at higher pH. The pH of the drug product formulation was optimized to minimize the preservative degradation while maintaining adequate solubility, and no significant increase in the preservatives degradation product has been observed in long-term stability studies.

[13] = cited from earlier work
[14] = clinical and registration batches 1-5, hydrochloride

CCNC(C)Cc1cccc(C(F)(F)F)c1 (stereo not shown) [fenfluramine hydrochloride]
time for which the solution is stable [1]: at least 6 months | polymorphs observed ([2]; polymorph screening study, accelerated and long-term stability studies): no other polymorphs have been observed | solid state stability ([2]; solid state): chemically and physically stable in the solid state | D50 [3, 14]: 6.99 μm and 6.79 μm and 8.92 μm and 8.20 μm and 6.16 μm | D90 [3, 14]: 23.01 μm and 26.25 μm and 32.08 μm and 27.04 μm and 18.96 μm | median particle size (D50) ([3]; experimental batch): 60 μm | ninetieth percentile (D90) ([3]; experimental batch): 250 μm | time needed for complete dissolution in the formulation vehicle ([3]; experimental batch vs micronized portions of the same batch): no difference was observed in the time needed for complete dissolution | solubility ([4]; 25 °C, pH 1.7, simulated gastric fluid): ~25 mg/mL | solubility ([4]; 25 °C, pH 6.7, aqueous buffer): > 50 mg/mL | solubility ([4]; 37 °C, aqueous buffer): 54 to 96 mg/mL | stability over pH range [5]: stable over the entire range of pH

CCN[C@@H](C)Cc1cccc(C(F)(F)F)c1 (racemic) [Dexfenfluramine]
carbohydrate craving ([6]; adults, 30 mg/day): reduction in carbohydrate craving | suppression of food intake ([6]; dose of 30 mg): suppressed food intake to the same degree as fenfluramine 60 mg | anorectic potency vs racemic mixture fenfluramine ([6]; group of 16 human subjects): twice the anorectic potency

CCNC(C)Cc1cccc(C(F)(F)F)c1 (stereo not shown) [fenfluramine, 3-trifluoromethyl-N-ethylamphetamine]
effect on seizures ([7]; child with pattern sensitivity-induced seizures resistant to anticonvulsive treatment): successfully terminated these self-induced seizures | number of seizures ([7]; children with refractory epilepsy, 0.5 to 1 mg/kg/day): reduction in the number of seizures | response of seizures ([7]; four cases of self-induced photosensitive seizures): responded to treatment | therapeutic benefit ([7]; patients with intractable epilepsy): appeared to be of therapeutic benefit | appetite and craving for carbohydrates [8]: effective in reducing appetite and craving for carbohydrates | adverse effects associated with use [9]: associated with the onset of cardiac fibrosis and pulmonary hypertension | effect on seizures ([10]; patients with Dravet syndrome, Lennox-Gastaut syndrome, or Doose syndrome): reduce or eliminate seizures | efficacy of low doses on seizures ([10]; surprisingly low doses, Dravet, Lennox-Gastaut or Doose syndrome patients): efficacious

CC(=O)CC(=O)O [acetoacetate]
glutamate transport by VGLUT2 [11]: inhibited

COC(=O)c1ccc(O)cc1.[Na] [Methylparaben sodium, sodium methyl p-hydroxybenzoate]
stability against hydrolysis [12]: acceptable stability below pH 6

CCOC(=O)c1ccc(O)cc1 [ethylparaben, ethyl 4-hydroxybenzoic acid]
solubility of the free acid in water ([13]; 20° C.): 0.07% | solubility of the free acid in water ([13]; 25° C.): 0.08% | solubility [13]: 0.8 mg/mL (≈ 4.81 mM)
